Results: patent publication US6448024B1, “Method, reagent, cartridge, and device for determining fibrinogen” (Roche Diagnostics Corporation, priority 2000, dated 2002)
Several values for one entry are separate records, joined by “and”; a condition that tells them apart may be missing. Equal values may be shown once. Read-outs that look alike come from different tables or passages of the source.

Key:
[1] = system: thrombin; test: One or both of the two assays (wet and cartridge), summary of effective thrombin inhibitors; assay type: biochemical; settings: wet and/or cartridge assay; result in words
[2] = molecular target: T1, thrombin (Bos taurus, UniProt P00735)
Method: Additional cartridges were prepared in which specific inhibitors were combined with the thrombin solution, the thrombin inhibitor/thrombin solution deposited in the cartridge, and dried. […] The TDS reagent (3 microliters) was applied to cartridges and dried. Fibrinogen test samples for these cartridges comprised 40 μL of the fibrinogen working solution combined with 7 μL of the plastic sphere solution.

[3] = molecular target: T1, thrombin; test: Cartridge assay (CoaguChek Plus), dried thrombin reagent in cartridge, inhibitor added to sample; assay type: biochemical, bovine; set-up: adding thrombin (Calbiochem 605157 bovine) to the HEPES Base solution; purchased Calbiochem 605157; settings: for Concentration in reagent found to be effective: clotting time above 10 s and below 300 s for fibrinogen 50 to 400 mg/dL, under 10 s without inhibitor
Method: An assay cartridge as described above was constructed in which the reagent chamber was coated with a dried reagent containing thrombin in a HEPES buffer matrix. Liquid samples containing latex beads as blood cell surrogates and various levels of fibrinogen were introduced into the cartridge contained within a CoaguChek™ Plus device. Just prior to introducing a sample into the device, the particular thrombin modulator being tested was added to the sample. A variety of thrombin modulators were tested in this manner.
A HEPES Base solution, pH=7.4, was formed from the following ingredients:
A thrombin solution was formed by adding thrombin (Calbiochem 605157 bovine) to the HEPES Base solution, the resulting concentration being 67 units/mL thrombin.
A 10% solution by weight of polystyrene spheres with a mean diameter of 3.27 μm (Bang Laboratories P0032700) was utilized as a blood cell surrogate for plasma or synthetic blood solutions “plastic sphere solution”).
Test cartridges were prepared by applying 3 microliters of the thrombin solution thereto and drying the solution. For each sample, a fresh “thrombin” cartridge was utilized.
Cartridges containing the dried thrombin reagent were utilized for the following experiments. Standard solutions were prepared in accordance with Example 3, except the thrombin inhibitor concentration was fixed, and the fibrinogen concentrations varied.

[4] = system: thrombin; test: Wet screening assay for thrombin inhibitors with BBL Fibrometer (clotting time of fibrinogen solutions); assay type: biochemical, human plasma or bovine; settings: for Clotting Time (average), n = 2: 15 mg/mL benzamidine (final concentration); for Found useful/effective as thrombin inhibitor in fibrometer wet assay: result in words; for Clot Time: 200 μL 0.5 mg/mL D.S. working solution, 50 μL 100 U/mL thrombin
Method: Materials and Methods: A phosphate buffered saline (PBS)-albumin solution was formed as follows:
2) 100 U/mL thrombin working solution; thrombin was obtained from Calbiochem (605206—human plasma, or 605157—bovine); and
3) fibrinogen working solutions having fibrinogen concentrations ranging from between 6 and 24 mg/mL fibrinogen; fibrinogen was obtained from Calbiochem (341578).
Screening Assay Procedure Using Fibrometer: A BBL Fibrometer was utilized to determine clotting times of test solutions. Test solutions were formed by adding the following components in the following order:
1. 200 μL D.S. working solution,
2. 50 μL thrombin working solution,
3. 50 μL fibrinogen working solution.
Immediately upon addition of the third component (i.e., the fibrinogen working solution), the fibrometer was activated, resulting in the probe being released into the vessel containing the reaction solution. The probe was agitated until sufficient resistance to motion was reached corresponding to a predetermined degree of clotting. A display indicated time from activation of the probe until the predetermined degree of clotting was reached.
Using the method of Example 1, 15 mg/mL benzamidine (Sigma B6506) in the PBS-albumin solution (final concentration) was contacted with samples containing varying amounts of fibrinogen.

## O=C(NCCCNC(=O)[C@H](OS(=O)(=O)O)[C@@H](OS(=O)(=O)O)[C@H](O[C@@H]1O[C@H](COS(=O)(=O)O)[C@H](OS(=O)(=O)O)[C@H](OS(=O)(=O)O)[C@H]1OS(=O)(=O)O)[C@@H](COS(=O)(=O)O)OS(=O)(=O)O)[C@H](OS(=O)(=O)O)[C@@H](OS(=O)(=O)O)[C@H](O[C@@H]1O[C@H](COS(=O)(=O)O)[C@H](OS(=O)(=O)O)[C@H](OS(=O)(=O)O)[C@H]1OS(=O)(=O)O)[C@@H](COS(=O)(=O)O)OS(=O)(=O)O [Aprosulate, aprosulate]
[1]
  Thrombin inhibitor found to be effective: effective
[2]; TA reagent dried in cartridge (67 units/mL thrombin, 20 10 g/dL aprosulate as printed), fibrinogen 25.5 mg/mL (so in the source)
  Average Clotting Time After Application To Inlet Port Of Cartridge (n = 2): 275 s
[2]; TA reagent dried in cartridge, fibrinogen 102 mg/mL (so in the source)
  Average Clotting Time After Application To Inlet Port Of Cartridge (n = 2): 134 s
[2]; TA reagent dried in cartridge, fibrinogen 204 mg/mL (so in the source)
  Average Clotting Time After Application To Inlet Port Of Cartridge (n = 2): 41 s
[2]; TA reagent dried in cartridge, fibrinogen 408 mg/mL (so in the source)
  Average Clotting Time After Application To Inlet Port Of Cartridge (n = 2): 24 s
[3]; 43 mg/mL aprosulate, fibrinogen 76 mg/mL (so in the source)
  Clotting Time After Application To Inlet Port Of Cartridge Containing Thrombin Reagent: 149.1 s
[3]; 43 mg/mL aprosulate, fibrinogen 153 mg/mL (so in the source)
  Clotting Time After Application To Inlet Port Of Cartridge Containing Thrombin Reagent: 85.5 s
[3]; 43 mg/mL aprosulate, fibrinogen 306 mg/mL (so in the source)
  Clotting Time After Application To Inlet Port Of Cartridge Containing Thrombin Reagent: 21.4 s

## Cn1c(=O)c2c(ncn2C)n(C)c1=O [Caffeine, caffeine]
[1]
  Thrombin inhibitor found to be effective: effective
[3]; […] caffeine, fibrinogen 100 mg/mL (so in the source)
  Clotting Time After Application To Inlet Port Of Cartridge Containing Thrombin Reagent: 88.8 s
[3]; […] caffeine, fibrinogen 200 mg/mL (so in the source)
  Clotting Time After Application To Inlet Port Of Cartridge Containing Thrombin Reagent: 30.0 s
[3]; […] caffeine, fibrinogen 400 mg/mL (so in the source)
  Clotting Time After Application To Inlet Port Of Cartridge Containing Thrombin Reagent: 24.8 s

## N=C(N)c1ccccc1 [benzamidine]
[4]; sample fibrinogen 100 mg/dL
  Clotting Time (average), n = 2: 242 s
[4]; sample fibrinogen 200 mg/dL
  Clotting Time (average), n = 2: 139 s
[4]; sample fibrinogen 400 mg/dL
  Clotting Time (average), n = 2: 93 s
[1]
  Thrombin inhibitor found to be effective: effective

## Gly-Gly-Arg
[1]
  Thrombin inhibitor found to be effective: effective
[3]
  Concentration in reagent found to be effective: 0.85 mg/mL and 1.3 mg/mL

## Gly-Pro-Ala
[1]
  Thrombin inhibitor found to be effective: effective

## Gly-Pro-Arg
[3]; […] Gly-Pro-Arg peptide, fibrinogen 100 mg/mL (so in the source)
  Clotting Time After Application To Inlet Port Of Cartridge Containing Thrombin Reagent: 239.6 s
[3]; […] Gly-Pro-Arg peptide, fibrinogen 102 mg/mL (so in the source)
  Clotting Time After Application To Inlet Port Of Cartridge Containing Thrombin Reagent: 44.1 s
[3]; […] Gly-Pro-Arg peptide, fibrinogen 204 mg/mL (so in the source)
  Clotting Time After Application To Inlet Port Of Cartridge Containing Thrombin Reagent: 9.9 s

## Polyanetholesulfate
[1]
  Thrombin inhibitor found to be effective: effective

## Polyvinylsulfate
[1]
  Thrombin inhibitor found to be effective: effective

## dextran sulfate
[4]; listed as dextran sulfate (50,000 Da—Dextralip 50)
  Found useful/effective as thrombin inhibitor in fibrometer wet assay: effective

## dextran sulfate [Dextran Sulfate-5,000 Da]
[3]
  Concentration in reagent found to be effective: 5 mg/mL

## dextran sulfate [dextran sulfate (5,000-50,000 MW)]
[1]
  Thrombin inhibitor found to be effective: effective

## dextran sulfate [dextran sulfate (10,000 Da)]
[4]; final assay fibrinogen 100 mg/dL, about 0.6 s without dextran sulfate
  Clot Time: 22.8 s
[4]; final assay fibrinogen 200 mg/dL
  Clot Time: 11.8 s
[4]; final assay fibrinogen 250 mg/dL
  Clot Time: 9.8 s
[4]; final assay fibrinogen 400 mg/dL
  Clot Time: 1.2 s
[4]
  Found useful/effective as thrombin inhibitor in fibrometer wet assay: useful thrombin inhibitor reagent
[2]; TDS reagent dried in cartridge (67 units/mL thrombin, 57 mg/mL dextran sulfate 10,000 Da), fibrinogen 198 mg/mL (so in the source)
  Clotting Time After Application To Inlet Port Of Cartridge: 40.0 s
[2]; TDS reagent dried in cartridge (67 units/mL thrombin, 57 mg/mL dextran sulfate 10,000 Da), fibrinogen 396 mg/mL (so in the source)
  Clotting Time After Application To Inlet Port Of Cartridge: 26.7 s
[2]; TDS reagent dried in cartridge (67 units/mL thrombin, 57 mg/mL dextran sulfate 10,000 Da, 3 microliters), fibrinogen 99 mg/mL (so in the source)
  Clotting Time After Application To Inlet Port Of Cartridge: 69.6 s
[3]; 21 mg/mL dextran sulfate (10,000 Da), fibrinogen 100 mg/mL (so in the source) in combined assay solution
  Clotting Time After Application To Inlet Port Of Cartridge Containing Thrombin Reagent: 157.5 s
[3]; 21 mg/mL dextran sulfate (10,000 Da), fibrinogen 102 mg/mL (so in the source)
  Clotting Time After Application To Inlet Port Of Cartridge Containing Thrombin Reagent: 81.9 s
[3]; 21 mg/mL dextran sulfate (10,000 Da), fibrinogen 204 mg/mL (so in the source)
  Clotting Time After Application To Inlet Port Of Cartridge Containing Thrombin Reagent: 28.6 s
